According to US11084800B2 (Achillion Pharmaceuticals, Inc., priority 2017, dated 2021):

The compounds below were run against Human Factor D (Homo sapiens (Human), UniProt P00746) (assay: Human Factor D Assay). Conditions: Factor D inhibition, assay of Example 10; read-out: IC5 (Stars).
Chain of Human Factor D (P00746 26-253): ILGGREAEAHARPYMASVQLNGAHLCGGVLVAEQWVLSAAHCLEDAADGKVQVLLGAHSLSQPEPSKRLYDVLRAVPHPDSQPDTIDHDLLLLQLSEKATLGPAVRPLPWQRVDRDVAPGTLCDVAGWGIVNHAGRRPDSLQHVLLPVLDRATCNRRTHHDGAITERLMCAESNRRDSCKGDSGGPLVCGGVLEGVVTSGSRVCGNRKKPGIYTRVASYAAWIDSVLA
Type: biochemical
Method in brief: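 Thioester substrate Z-L-Lys-SBz (100 μM) with Ellman's reagent DTNB (100 μM) reports activity of 80 nM human serum-derived enzyme, kinetically at 405 nm over 30 min. Compound preincubated 5 min, room temperature, pH 7.5 Tris/1 M NaCl; IC50 by nonlinear fit of rates.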
`CC(=O)c1nn(CC(=O)N2[C@H](C(=O)Nc3nc(Br)ccc3C)C[C@@]3(C)C[C@@H]23)c2c(C(F)CF)cc(-c3cnc(C)nc3)cc12` (stereo partly drawn) [Compound 237, (1R,3S,5R)-2-(2-(3-acetyl-7-(1,2-difluoroethyl)-5-(2-methylpyrimidin-5-yl)-1H-indazol-1-yl)acetyl)-N-(6-bromo-3-methylpyridin-2-yl)-5-methyl-2-azabicyclo[3.1.0]hexane-3-carboxamide] gave an IC50 of under 1000 nM.
For `CC(=O)c1nn(CC(=O)N2[C@H](C(=O)Nc3nc(Br)ccc3C)C[C@@]3(C)C[C@@H]23)c2c(C(O)CF)cc(-c3cnc(C)nc3)cc12` (stereo partly drawn) [Compound 238, (1R,3S,5R)-2-(2-(3-acetyl-7-(2-fluoro-1-hydroxyethyl)-5-(2-methylpyrimidin-5-yl)-1H-indazol-1-yl)acetyl)-N-(6-bromo-3-methylpyridin-2-yl)-5-methyl-2-azabicyclo[3.1.0]hexane-3-carboxamide], the IC50 was under 1000 nM.
In the case of `CC(=O)c1nn(CC(=O)N2[C@H]3C[C@@]3(CC#N)C[C@H]2C(=O)Nc2nc(Br)ccc2C)c2cnc(-c3cnc(C)nc3)cc12` [Compound 239, (1S,3S,5S)-2-(2-(3-acetyl-5-(2-methylpyrimidin-5-yl)-1H-pyrazolo[3,4-c]pyridin-1-yl)acetyl)-N-(6-bromo-3-methylpyridin-2-yl)-5-(cyanomethyl)-2-azabicyclo[3.1.0]hexane-3-carboxamide], the IC50 is reported as 1000 to 10000 nM.
For `CC(=O)c1nn(CC(=O)N2[C@@H](C(=O)Nc3nc(Br)ccc3C)C[C@]3(CC#N)C[C@H]23)c2cnc(-c3cnc(C)nc3)cc12` [Compound 240, (1S,3R,5S)-2-(2-(3-acetyl-5-(2-methylpyrimidin-5-yl)-1H-pyrazolo[3,4-c]pyridin-1-yl)acetyl)-N-(6-bromo-3-methylpyridin-2-yl)-5-(cyanomethyl)-2-azabicyclo[3.1.0]hexane-3-carboxamide], the IC50 was 1000 to 10000 nM.

Same assay, conditions: Table 6; Factor D 80 nM, substrate Z-L-Lys-SBz; read-out: IC50
In the case of `CC(=O)c1nn(CC(=O)N2[C@H](C(=O)Nc3nc(Br)ccc3C)C[C@@]3(Cn4cc(C5CC5)nn4)C[C@@H]23)c2ccc(-c3cnc(C)nc3)cc12` [Compound 201, (1R,3S,5R)-2-(2-(3-acetyl-5-(2-methylpyrimidin-5-yl)-1H-indazol-1-yl)acetyl)-N-(6-bromo-3-methylpyridin-2-yl)-5-((4-cyclopropyl-1H-1,2,3-triazol-1-yl)methyl)-2-azabicyclo[3.1.0]hexane-3-carboxamide], the IC50 is reported as under 1000 nM.
For `CC(=O)c1nn(CC(=O)N2[C@H](C(=O)Nc3nc(Br)ccc3C)C[C@@]3(Cn4cc([Si](C)(C)C)nn4)C[C@@H]23)c2ccc(-c3cnc(C)nc3)cc12` [Compound 202, (1R,3S,5R)-2-(2-(3-acetyl-5-(2-methylpyrimidin-5-yl)-1H-indazol-1-yl)acetyl)-N-(6-bromo-3-methylpyridin-2-yl)-5-((4-(trimethylsilyl)-1H-1,2,3-triazol-1-yl)methyl)-2-azabicyclo[3.1.0]hexane-3-carboxamide], the IC50 was under 1000 nM.
In the case of `CC(=O)c1nn(CC(=O)N2[C@H](C(=O)Nc3nc(Br)ccc3C)C[C@@]3(Cn4ccnn4)C[C@@H]23)c2ccc(-c3cnc(C)nc3)cc12` [Compound 203, (1R,3S,5R)-5-((1H-1,2,3-triazol-1-yl)methyl)-2-(2-(3-acetyl-5-(2-methylpyrimidin-5-yl)-1H-indazol-1-yl)acetyl)-N-(6-bromo-3-methylpyridin-2-yl)-2-azabicyclo[3.1.0]hexane-3-carboxamide], the IC50 is reported as under 1000 nM.
Compound `CC(=O)c1nn(CC(=O)N2[C@H](C(=O)Nc3nc(Br)ccc3CN3CC4(COC4)C3)C[C@@]3(C)C[C@@H]23)c2ccc(-c3cnc(C)nc3)cc12` [Compound 204] has an IC50 of under 1000 nM.
Work on `CC(=O)c1nn(CC(=O)N2[C@H](C(=O)Nc3nc(Br)ccc3C)C[C@@]3(C)C[C@@H]23)c2c(C)nc(-c3cnc(C)nc3)cc12` [Compound 205, (1R,3S,5R)-2-(2-(3-acetyl-7-methyl-5-(2-methylpyrimidin-5-yl)-1H-pyrazolo[3,4-c]pyridin-1-yl)acetyl)-N-(6-bromo-3-methylpyridin-2-yl)-5-methyl-2-azabicyclo[3.1.0]hexane-3-carboxamide] yielded an IC50 of under 1000 nM.
Work on `CC(=O)c1nn(CC(=O)N2[C@H]3C[C@@]3(CN3C[C@H]4CCC[C@H]4C3)C[C@H]2C(=O)Nc2nc(Br)ccc2C)c2cnc(-c3cnc(C)nc3)cc12` [Compound 206, (1S,3S,5S)-2-(2-(3-acetyl-5-(2-methylpyrimidin-5-yl)-1H-pyrazolo[3,4-c]pyridin-1-yl)acetyl)-N-(6-bromo-3-methylpyridin-2-yl)-S-(((3aR,6a5)-hexahydrocyclopenta[c]pyrrol-2(1H)-yl)methyl)-2-azabicyclo[3.1.0]hexane-3-carboxamide] yielded an IC50 of under 1000 nM.
In the case of `CC(=O)c1nn(CC(=O)N2[C@H]3C[C@@]3(CN3CC4(CCCC4)C3)C[C@H]2C(=O)Nc2nc(Br)ccc2C)c2cnc(-c3cnc(C)nc3)cc12` [Compound 207, (1S,3S,5S)-5-((2-azaspiro[3.4]octan-2-yl)methyl)-2-(2-(3-acetyl-5-(2-methylpyrimidin-5-yl)-1H-pyrazolo[3,4-c]pyridin-1-yl)acetyl)-N-(6-bromo-3-methylpyridin-2-yl)-2-], the IC50 is reported as under 1000 nM.
Work on `CC(=O)c1nn(CC(=O)N2[C@H](C(=O)Nc3nc(Br)ccc3C)C[C@@]3(C)C[C@@H]23)c2c(C)cc(-c3cnc(OC4COC4)nc3)cc12` [Compound 208, (1R,3S,5R)-2-(2-(3-acetyl-7-methyl-5-(2-(oxetan-3-yloxy)pyrimidin-5-yl)-1H-indazol-1-yl)acetyl)-N-(6-bromo-3-methylpyridin-2-yl)-5-methyl-2-azabicyclo[3.1.0]hexane-3-carboxamide] yielded an IC50 of under 1000 nM.
`CC(=O)c1nn(CC(=O)N2[C@H](C(=O)Nc3nc(Br)c(F)cc3C)C[C@@]3(C)C[C@@H]23)c2c(C)nc(-c3cnc(C)nc3)cc12` [Compound 209, (1R,3S,5R)-2-(2-(3-acetyl-7-methyl-5-(2-methylpyrimidin-5-yl)-1H-pyrazolo[3,4-c]pyridin-1-yl)acetyl)-N-(6-bromo-5-fluoro-3-methylpyridin-2-yl)-5-methyl-2-azabicyclo[3.1.0]hexane-3-carboxamide] was tested, and the IC50 was under 1000 nM.
In the case of `CC(=O)c1nn(CC(=O)N2[C@H](C(=O)Nc3nc(Br)ccc3C)C[C@@]3(C)C[C@@H]23)c2c(C)cc(-c3cnc(C)nc3)nc12` [Compound 210, (1R,3S,5R)-2-(2-(3-acetyl-7-methyl-5-(2-methylpyrimidin-5-yl)-1H-pyrazolo[4,3-b]pyridin-1-yl)acetyl)-N-(6-bromo-3-methylpyridin-2-yl)-5-methyl-2-azabicyclo[3.1.0]hexane-3-carboxamide], the IC50 is reported as over 10000 nM.
`NC(=O)c1cc(-c2cccnc2)n(CC(=O)N2C[C@H](F)C[C@H]2C(=O)Nc2cccc(Br)n2)n1` [Compound 211, 1-(2-((2S,4R)-2-((6-Bromopyridin-2-yl)carbamoyl)-4-fluoropyrrolidin-1-yl)-2-oxoethyl)-5-(pyridin-3-yl)-1H-pyrazole-3-carboxamide] gave an IC50 of under 1000 nM.
Compound `Cc1ccc(Br)nc1NC(=O)[C@@H]1C[C@@]2(C)C[C@H]2N1C(=O)Cn1nc(C(N)=O)cc1-c1ccco1` [Compound 212, (1R,3S,5R)—N-(6-Bromo-3-methylpyridin-2-yl)-2-(2-(3-carbamoyl-5-(furan-2-yl)-1H-pyrazol-1-yl)acetyl)-5-methyl-2-azabicyclo[3.1.0]hexane-3-carboxamide] has an IC50 of under 1000 nM.
`Cc1ccc(Br)nc1NC(=O)[C@@H]1C[C@@]2(C)C[C@H]2N1C(=O)Cn1nc(-c2ccco2)cc1C(N)=O` [Compound 213, (1R,3S,5R)—N-(6-Bromo-3-methylpyridin-2-yl)-2-(2-(5-carbamoyl-3-(furan-2-yl)-1H-pyrazol-1-yl)acetyl)-5-methyl-2-azabicyclo[3.1.0]hexane-3-carboxamide] showed an IC50 of 1000 to 10000 nM.
`Cc1ccc(Br)nc1NC(=O)[C@@H]1C[C@@]2(C)C[C@H]2N1C(=O)Cn1nc(C(N)=O)cc1-c1cccs1` [Compound 214, (1R,3S,5R)—N-(6-Bromo-3-methylpyridin-2-yl)-2-(2-(3-carbamoyl-5-(thiophen-2-yl)-1H-pyrazol-1-yl)acetyl)-5-methyl-2-azabicyclo[3.1.0]hexane-3-carboxamide] showed an IC50 of under 1000 nM.
`Cc1ncc(-c2cc(C(N)=O)nn2CC(=O)N2C[C@H](F)C[C@H]2C(=O)Nc2cccc(Br)n2)cn1` [Compound 215, 1-(2-((2S,4R)-2-((6-Bromopyridin-2-yl)carbamoyl)-4-fluoropyrrolidin-1-yl)-2-oxoethyl)-5-(2-methylpyrimidin-5-yl)-1H-pyrazole-3-carboxamide] showed an IC50 of over 10000 nM.
Compound `CC(=O)c1c2cc(-c3cnc(C)nc3)cc(C(F)(F)F)c2nn1CC(=O)N1[C@H](C(=O)Nc2nc(Br)ccc2C)C[C@@]2(C)C[C@@H]12` [Compound 217, (1R,3S,5R)-2-(2-(3-acetyl-5-(2-methylpyrimidin-5-yl)-7-(trifluoromethyl)-2H-indazol-2-yl)acetyl)-N-(6-bromo-3-methylpyridin-2-yl)-5-methyl-2-azabicyclo[3.1.0]hexane-3-carboxamide] has an IC50 of over 10000 nM.
Compound `CC(=O)c1nn(CC(=O)N2[C@H](C(=O)Nc3nc(Br)ccc3C)C[C@@]3(C)C[C@@H]23)c2cnc(-c3cnc4cc(C)nn4c3)cc12` [Compound 219, (1R,3S,5R)-2-(2-(3-acetyl-5-(2-methylpyrazolo[1,5-a]pyrimidin-6-yl)-1H-pyrazolo[3,4-c]pyridin-1-yl)acetyl)-N-(6-bromo-3-methylpyridin-2-yl)-5-methyl-2-azabicyclo[3.1.0]hexane-3-carboxamide] has an IC50 of under 1000 nM.

Same assay, conditions: Table 8; Factor D 80 nM, substrate Z-L-Lys-SBz; read-out: IC50
Compound `CC(=O)c1nn(CC(=O)N2[C@H](C(=O)Nc3nc(Br)ccc3C)C[C@@]3(C)C[C@@H]23)c2c(-c3nn[nH]n3)cc(-c3cnc(C)nc3)cc12` [Compound 236, (1R,3S,5R)-2-(2-(3-acetyl-5-(2-methylpyrimidin-5-yl)-7-(2H-tetrazol-5-yl)-1H-indazol-1-yl)acetyl)-N-(6-bromo-3-methylpyridin-2-yl)-5-methyl-2-azabicyclo[3.1.0]hexane-3-carboxamide] has an IC50 of under 1000 nM.
